# Patent publication US12121521B2, “Uses of salt-inducible kinase (SIK) inhibitors for treating osteoporosis” (The General Hospital Corporation, priority 2016, dated 2024)
# Key:
# Ocy454 cells [1] = assay: Immunoblotting of Ocy454 cell lysates (HDAC4/5, CRTC2, SIK2 phosphorylation and localisation); type: cell-based, mouse; conditions: indicated doses, 20 minutes; FIG. 8A
# Ocy454 cells [2] = assay: Gene expression in Ocy454 cells by RT-qPCR; type: cell-based, mouse; conditions: 1 μM, 4 hours; control vs shSIK2/3 cells; FIG. 8B
# tyrosine kinase Src = tyrosine kinase Src (Homo sapiens, UniProt P12931); conditions: cited from earlier work
# Sequence of tyrosine kinase Src (P12931 whole entry): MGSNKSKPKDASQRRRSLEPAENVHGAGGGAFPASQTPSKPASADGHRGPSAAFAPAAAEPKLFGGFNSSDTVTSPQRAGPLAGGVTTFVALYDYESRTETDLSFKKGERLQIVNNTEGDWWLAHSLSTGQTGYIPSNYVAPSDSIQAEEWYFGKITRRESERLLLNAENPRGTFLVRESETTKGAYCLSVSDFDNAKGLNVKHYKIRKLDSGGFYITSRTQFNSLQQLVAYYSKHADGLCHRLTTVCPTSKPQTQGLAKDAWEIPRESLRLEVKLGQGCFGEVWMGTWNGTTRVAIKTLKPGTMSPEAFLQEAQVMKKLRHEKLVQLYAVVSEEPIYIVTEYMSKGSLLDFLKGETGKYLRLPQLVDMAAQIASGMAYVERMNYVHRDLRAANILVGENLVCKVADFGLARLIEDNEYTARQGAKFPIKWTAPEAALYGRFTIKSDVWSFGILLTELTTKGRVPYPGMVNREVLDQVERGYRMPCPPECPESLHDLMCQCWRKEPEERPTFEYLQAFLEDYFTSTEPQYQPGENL
compound,measurement,setting,value
COc1ccc(N2C(=O)N(c3c(C)cccc3Cl)Cc3cnc(Nc4ccc(C5CCN(C)CC5)cc4OC)nc32)nc1 [YKL-05-099],HDAC4 S246 phosphorylation,Ocy454 cells [1],dose-dependent reduction in HDAC4 S246 phosphorylation
same,RANKL expression,Ocy454 cells [2],RANKL up-regulation in a SIK2/3-dependent manner
same,SOST expression,Ocy454 cells [2],SOST down-regulation
same,inhibition of the tyrosine kinase Src,tyrosine kinase Src,known to inhibit the tyrosine kinase Src
